According to patent US20130252930A1 (BIOMARIN PHARMACEUTICAL INC., priority 2010, published 2013):
Like-named read-outs stand apart in the source and are kept apart here. Each block holds one compound with its values, some of them ahead of it.

How the values were obtained:
[1] = biological target: T1, CYP17 (H295R cells) (Homo sapiens, UniProt P05093); test: CYP17 cellular assay (IC50), testosterone in H295R cells (Biological Example 7); type: cell-based; settings: H295R cells
T1 construct: endogenous in cells; host or cells: H295R cells
T1 sequence (P05093 1-508): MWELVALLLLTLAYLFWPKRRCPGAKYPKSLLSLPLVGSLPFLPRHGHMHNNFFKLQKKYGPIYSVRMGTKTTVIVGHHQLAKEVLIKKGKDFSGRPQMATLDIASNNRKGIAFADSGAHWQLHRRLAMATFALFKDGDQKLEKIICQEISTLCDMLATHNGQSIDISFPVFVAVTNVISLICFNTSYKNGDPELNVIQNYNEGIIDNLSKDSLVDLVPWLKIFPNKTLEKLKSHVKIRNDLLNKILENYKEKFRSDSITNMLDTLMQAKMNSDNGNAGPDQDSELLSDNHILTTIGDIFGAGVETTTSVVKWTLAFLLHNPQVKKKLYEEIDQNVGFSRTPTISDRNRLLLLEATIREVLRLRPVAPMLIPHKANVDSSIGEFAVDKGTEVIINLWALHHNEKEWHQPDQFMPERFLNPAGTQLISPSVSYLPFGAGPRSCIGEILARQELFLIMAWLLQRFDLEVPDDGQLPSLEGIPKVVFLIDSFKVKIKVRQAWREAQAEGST
Description: The assays were performed in 96-well plates. Typically H295R cells were seeded at 4.5×10^4 cells/well in 100 μL Growth Medium containing DMEM/F-12 (Gibco/Invitrogen; 11330-032), 2.5% Nu-Serum (BD Bioscience; 355100) and ITS (BD Bioscience; 354352), and cultured at 37° C., 5% CO2 for 24 hr. The next day, media were carefully removed and cells were washed twice with 200 μL 1×HBSS++. Test compounds were then added to the cells at 100, 10, 1, 0.1 nM final concentrations in 125 μL volume per well in serum-free media containing DMEM/F-12 and ITS+ Premix (BD Bioscience; 354352) with 0.1% methanol. Serum-free media with 0.1% methanol without test compound was used as control. Cells were incubated with compounds at 37° C. for additional 24 hours, and the cultured media from each compound treated well was harvested for measurement of testosterone concentration by ELISA according to manufacturer's instruction (Assay Design). Testosterone concentration of each sample was plotted vs. the concentration of the test compounds.

[2] = biological target: T2, CYP17 (human testicular microsome) (Homo sapiens, UniProt P05093); test: CYP17 enzymatic assay (% inhibition at 1 nM) (Biological Example 12); type: biochemical
T2 construct: using microsomal fraction from human testis (Celsis Cat #S00110) as the enzyme source; tissue Celsis S00110; host or cells: human testis microsomal fraction
T2 sequence (P05093 1-508): T1 sequence (P05093 1-508)

[3] = Human liver microsome stability assay (Biological Example 8b); settings: liver microsomes, pH 7.4
[4] = biological target: T2, CYP17 (human testicular microsome); test: CYP17 enzymatic assay (IC50) (Biological Example 4); type: biochemical
[5] = biological target: T2, CYP17 (human testicular microsome); test: CYP17 enzymatic assay (% inhibition at 10 nM), version 1 (Biological Example 5); type: biochemical
[6] = biological target: T3, Cyp21 enzyme (Human HEK 293-Cyp21 stable transfected cells) (Homo sapiens, UniProt P08686); test: CYP21-HEK293 enzymatic assay (IC50) (Biological Example 11); type: cell-based
T3 construct: expressed in transfected cells
T3 sequence (P08686 1-495): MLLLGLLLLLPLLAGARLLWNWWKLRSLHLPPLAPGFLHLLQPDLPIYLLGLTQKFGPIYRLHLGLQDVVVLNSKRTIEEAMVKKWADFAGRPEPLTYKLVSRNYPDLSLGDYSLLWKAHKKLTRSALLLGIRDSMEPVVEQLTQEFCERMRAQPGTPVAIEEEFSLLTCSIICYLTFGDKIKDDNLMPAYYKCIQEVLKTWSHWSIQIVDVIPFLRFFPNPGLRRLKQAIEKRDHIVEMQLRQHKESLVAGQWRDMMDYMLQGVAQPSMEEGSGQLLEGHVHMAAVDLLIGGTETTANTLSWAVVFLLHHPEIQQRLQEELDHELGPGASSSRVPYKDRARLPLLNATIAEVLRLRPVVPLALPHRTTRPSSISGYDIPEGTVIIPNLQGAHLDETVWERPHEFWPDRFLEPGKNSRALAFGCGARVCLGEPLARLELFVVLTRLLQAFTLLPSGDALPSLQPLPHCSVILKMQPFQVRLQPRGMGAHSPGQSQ

[7] = testosterone, read-out: CYP17 cellular assay IC50 (Biological Example No. 7)
[8] = compound at 1 nM, read-out: CYP17 enzymatic assay % inhibition at 1 nM (Biological Example No. 12)
[9] = human testicular microsome, DHEA by ELISA, read-out: Biological Example No. 4: CYP17 enzymatic assay IC50
[10] = testosterone by ELISA, 24 hours, read-out: Biological Example No. 7: CYP17 cellular assay IC50
[11] = 10 nM compound, DHEA by ELISA, read-out: Biological Example No. 5: CYP17 percent inhibition at 10 nM (version 1)
[12] = testosterone, read-out: Biological Example No. 7: CYP17 cellular assay IC50
[13] = compound at 1 nM, read-out: Biological Example No. 12: CYP17 enzymatic assay % inhibition at 1 nM
[14] = human testicular microsome, read-out: Biological Example No. 4: CYP17 enzymatic assay IC50
[15] = human testicular microsome, read-out: CYP17 enzymatic assay IC50 (Biological Example No. 4)
[16] = HEK 293-Cyp21 cells, read-out: Biological Example No. 11: CYP21-HEK293 enzymatic assay IC50

Compound: CN(C)CC(=O)O[C@H]1CC[C@@]2(C)C(=CC[C@H]3C4=CC=C(c5cccnc5)[C@@]4(C)CC[C@@H]32)C1 [195′, (3S,10R,13S)-10,13-dimethyl-17-(pyridin-3-yl)-2,3,4,7,8,9,10,11,12,13-decahydro-1H-cyclopenta[a]phenanthren-3-yl 2-(dimethylamino)acetate]
IC50 [1, 7]: 15 to 100 nM
inhibition at 0.001 µM [2, 8]: > 50%

Compound: CC(=O)N[C@@H]1CC[C@@]2(C)C(CCC3C2CC[C@]2(C)C(c4cnccc4C)=CCC32)C1 (stereo partly drawn) [Compound 21, N-((3R,10S,13S)-10,13-dimethyl-17-(4-methylpyridin-3-yl)-2,3,4,5,6,7,8,9,10,11,12,13,14,15-tetradecahydro-1H-cyclopenta[a]phenanthren-3-yl)acetamide]
IC50 [1, 7]: < 15 nM
half-life at 1 μM [3]: 1 to 50 min
inhibition at 0.001 µM [2, 8]: > 50%

Compound: C[C@]12CCCC(=O)C1CC[C@@H]1[C@@H]2CC[C@]2(C)C(c3cccnc3)=CC[C@@H]12 (stereo partly drawn) [Compound 89, (10R,13S)-10,13-dimethyl-17-(pyridin-3-yl)-2,3,5,6,7,8,9,11,12,13,14,15-dodecahydro-1H-cyclopenta[a]phenanthren-4(10H)-one]
IC50 [4, 9]: < 11 nM
IC50 [1, 10]: < 15 nM
inhibition at 0.01 µM [5, 11]: > 80%

Compound: CC(=O)O[C@H]1CC[C@@]2(C)[C@@H](CC[C@@H]3[C@@H]2CC[C@]2(C)C(n4ccnn4)=CC[C@@H]32)C1 [Compound 130, (3S,5S,8R,9S,10S,13S,14S)-10,13-dimethyl-17-(1H-1,2,3-triazol-1-yl)-2,3,4,5,6,7,8,9,10,11,12,13,14,15-tetradecahydro-1H-cyclopenta[a]phenanthren-3-yl acetate]
IC50 [4, 9]: < 11 nM
IC50 [1, 10]: < 15 nM
inhibition at 0.01 µM [5, 11]: > 80%

Compound: C[C@]12CC[C@H]3[C@@H](CC=C4C[C@@H](O)CC[C@@]43C)C1=CC=C2c1cncc(C(F)F)c1 [Compound 272, (3S,10R,13S)-17-(5-(difluoromethyl)pyridin-3-yl)-10,13-dimethyl-2,3,4,7,8,9,10,11,12,13-decahydro-1H-cyclopenta[a]phenanthren-3-ol]
IC50 [1, 12]: 15 to 100 nM
inhibition at 0.001 µM [2, 13]: < 10%

Compound: CC1C(O)CC[C@@]2(C)C1CC[C@@H]1[C@@H]2CC[C@]2(C)C(c3cccnc3)=CC[C@@H]12 (stereo partly drawn) [Compound 304, (10R,13S)-4,10,13-trimethyl-17-(pyridin-3-yl)-2,3,4,5,6,7,8,9,10,11,12,13,14,15-tetradecahydro-1H-cyclopenta[a]phenanthren-3-ol]
IC50 [4, 14]: < 11 nM
IC50 [1, 12]: < 15 nM
inhibition at 0.001 µM [2, 13]: 10 to 50%

Compound: C[C@]12CC[C@H]3[C@@H](CCC45CC4C(O)CC[C@]35C)[C@@H]1CC=C2c1cccnc1 (stereo partly drawn) [Compound 314, (4aR,6aS)-4a,6a-dimethyl-7-(pyridin-3-yl)-1a,2,3,4,4a,4b,5,6,6a,9,9a,9b,10,11-tetradecahydro-1H-cyclopenta[a]cyclopropa[j]phenanthren-2-ol]
IC50 [4, 15]: < 11 nM
IC50 [1, 7]: < 15 nM
inhibition at 0.001 µM [2, 8]: > 50%

Compound: CC1C[C@H]2C3=CC=C(c4cccnc4)[C@@]3(C)CC[C@@H]2[C@@]2(C)CCC(=O)C=C12 (stereo partly drawn) [Compound 315, (10R,13S)-6,10,13-trimethyl-17-(pyridin-3-yl)-6,7,8,9,10,11,12,13-octahydro-1H-cyclopenta[a]phenanthren-3(2H)-one]
IC50 [4]: < 11 nM
half-life at 1 μM [3]: 1 to 50 min
inhibition at 0.001 µM [2, 13]: > 50%
IC50 [6, 16]: < 10 nM

Compound: C[C@]12CCC(=O)C=C1C(F)C[C@@H]1[C@@H]2CC[C@]2(C)C(c3cncc(F)c3)=CC[C@@H]12 (stereo partly drawn) [Compound 325, (10R,13S)-6-fluoro-17-(5-fluoropyridin-3-yl)-10,13-dimethyl-6,7,8,9,10,11,12,13,14,15-decahydro-1H-cyclopenta[a]phenanthren-3(2H)-one]
IC50 [4, 14]: < 11 nM
half-life at 1 μM [3]: 1 to 50 min
inhibition at 0.001 µM [2, 13]: > 50%
IC50 [6, 16]: > 1000 nM

Compound: CC1C[C@H]2C3=CC=C(c4cccnc4)[C@@]3(C)CC[C@@H]2[C@@]2(C)C=CC(=O)C=C12 (stereo partly drawn) [Compound 349, (10R,13S)-6,10,13-trimethyl-17-(pyridin-3-yl)-6,7,8,9,10,11,12,13-octahydro-3H-cyclopenta[a]phenanthren-3-one]
half-life at 1 μM [3]: 1 to 50 min
inhibition at 0.001 µM ([2]; test compound at 1 nM, read-out: CYP17 enzymatic assay percent inhibition at 1 nM (Biological Example No. 12)): > 50%
IC50 ([6]; HEK 293-Cyp21 stable transfected cells, read-out: CYP21-HEK293 enzymatic assay IC50 (Biological Example No. 11)): < 10 nM
inhibition at 0.01 µM ([5]; test compound at 10 nM, read-out: CYP17 enzymatic assay percent inhibition at 10 nM (Biological Example No. 5)): > 80%

IC50 [4, 14]: < 11 nM
half-life at 1 μM [3]: 1 to 50 min
inhibition at 0.001 µM [2, 13]: > 50%
IC50 [6, 16]: > 1000 nM
Compound: C[C@]12CCNC(=O)C=C1C(F)CC1C2CC[C@]2(C)C(c3cccnc3)=CCC12 (stereo partly drawn) [Compound 370, (5aR,7aS)-12-fluoro-5a,7a-dimethyl-8-(pyridin-3-yl)-3,4,5,5a,5b,6,7,7a,10,10a,11,12-dodecahydrocyclopenta[5,6]naphtho[1,2-d]azepin-2(10bH)-one]

IC50 [4, 14]: < 11 nM
half-life at 1 μM [3]: 1 to 50 min
inhibition at 0.001 µM [2, 13]: > 50%
IC50 [6, 16]: > 100 nM
Compound: C[C@]12CCNC(=O)C=C1C1CC1[C@@H]1[C@@H]2CC[C@]2(C)C(c3cccnc3)=CC[C@@H]12 (stereo partly drawn) [Compound 382, (5aR,7aS)-5a,7a-dimethyl-8-(pyridin-3-yl)-3,4,5,5a,5b,6,7,7a,10,10a,10b,10c,11,11a-tetradecahydro-2H-cyclopenta[5,6]cyclopropa[3,4]naphtho[1,2-d]azepin-2-one]

Compound: C[C@]12CCC3C(CCC4=CC(=O)CC[C@@]43C)C1=CC=C2c1cncnc1 (stereo partly drawn) [Compound 471, (10R,13S)-10,13-dimethyl-17-(pyrimidin-5-yl)-6,7,8,9,10,11,12,13-octahydro-1H-cyclopenta[a]phenanthren-3(2H)-one]
IC50 [4, 15]: < 11 nM
half-life at 1 μM [3]: 1 to 50 min
inhibition at 0.001 µM [2, 8]: > 50%
IC50 ([6]; HEK 293-Cyp21 cells, read-out: CYP21-HEK293 enzymatic assay IC50 (Biological Example No. 11)): 10 to 100 nM

Compound: CCC1CC2C3=CC=C(c4cccnc4)[C@@]3(C)CCC2[C@@]2(C)CCC(=O)C=C12 (stereo partly drawn) [Compound 482, (10R,13S)-6-ethyl-10,13-dimethyl-17-(pyridin-3-yl)-6,7,8,9,10,11,12,13-octahydro-1H-cyclopenta[a]phenanthren-3(2H)-one]
IC50 [4]: < 11 nM
half-life at 1 μM [3]: 1 to 50 min
inhibition at 0.001 µM [2, 13]: 10 to 50%
IC50 [6, 16]: 10 to 100 nM
